Assay results from the supplement of paper PMC11208160.

Experiment: recombinant barcode read abundance after kanamycin selection (control-corrected) (log10(CPM+1)); higher = more efficient recombination; sequences stand for … in AGTGCAGAGAAAATCGGCCAGTTTTCTCTGCCTGCAGTCCGCATGCCGT…AGATTTATGCAGCGGACTGCCTTTCTCCCAAAGTGATAAACCGGACAGTATCATGGACCGGTTTTCCCGGTAATCCGTATTTGCAAGGTTGGTTTCACT; site = the 11-nt target
Summary of the method: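 For this pooled screen, each oligo contained a promoter, a target, a barcode and the J23119-driven first 104 bases of the bridge RNA. Gibson cloning placed it into a vector supplying the remaining 73 bp and a T7-inducible recombinase, and the pool was co-electroporated into E. coli with a donor plasmid. Recombination efficiency is derived from barcode counts per million at recombinant junctions after averaging and control correction, and is expressed on a log scale as log10(CPM+1), with selection on chloramphenicol/ampicillin/kanamycin plus 0.1 mM IPTG against a chloramphenicol/ampicillin LB agar control.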
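Further: IS621 recombinase and bridge RNA in Escherichia coli cells.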

First: GAGGGCCCTTGGGTTCTAACCTGTTGCCT (site CAGGGCCCTAG)
Second: GAGGGCCCTTGGGTTCTAACCTGTTGCCT (site GAGGGCCCTAG)
The “recombinant barcode read abundance (log10)” value of the first is lower: 1.04 for the first, 2.41 for the second.

Compared with “GAGGGCCCTTGGGTTCTAACCTGTTGCCT (site TAGGGCCCTAG)”, “GAGGGTCCTTGGGTTCTAACCTGTTGCCT (site GAGGGTCCTAA)” is lower in “recombinant barcode read abundance (log10)” value: 1.04 for the first, 0.451 for the second.

Compared with “GAGGGTCCTTGGGTTCTAACCTGTTGCCT (site GAGGGTCCTAC)”, “GAGGGTCCTTGGGTTCTAACCTGTTGCCT (site GAGGGTCCTAG)” is higher in “recombinant barcode read abundance (log10)” value: 0.133 for the first, 2.56 for the second.

First: GAGGGTCCTTGGGTTCTAACCTGTTGCCT (site GAGGGTCCTAT)
Second: GAGGGTCCTTGGGTTCTAACCTGTTGCTT (site GAGGGTCCTAA)
The “recombinant barcode read abundance (log10)” value of the first is lower: 0.457 for the first, 2 for the second.

Compared with “GAGGGTCCTTGGGTTCTAACCTGTTGCTT (site GAGGGTCCTAC)”, “GAGGGTCCTTGGGTTCTAACCTGTTGCTT (site GAGGGTCCTAG)” is higher in “recombinant barcode read abundance (log10)” value: 0.598 for the first, 1.72 for the second.

“GAGGGTCCTTGGGTTCTAACCTGTTGCTT (site GAGGGTCCTAT)” and “GAGGGTGCTTGGGTTCTAACCTGTTGCCT (site GAGGGTGCTAG)” are within 0.2 log units of each other in “recombinant barcode read abundance (log10)” value: 1.83 for the first, 1.89 for the second.

“GAGGGTGCTTGGGTTCTAACCTGTTGCCT (site GAGGGTTCTAT)” and “GAGGTATCTTGGGTTCTAACCTGTTGCCA (site GAGGTATCTAC)” are within 0.2 log units of each other in “recombinant barcode read abundance (log10)” value: 0.121 for the first, 0.038 for the second.

Going from “GAGGTATCTTGGGTTCTAACCTGTTGCCA (site GAGGTATCTTG)” to “GAGGTATCTTGGGTTCTAACCTGTTGCTA (site GAGGTATCTAA)”, the “recombinant barcode read abundance (log10)” value falls from 1.12 to 0.201.

Compared with “GAGGTATCTTGGGTTCTAACCTGTTGCTA (site GAGGTATCTTA)”, “GAGGTGCCTTGGGTTCTAACCTGTTGCTG (site CTAACTACTAC)” is lower in “recombinant barcode read abundance (log10)” value: 0.345 for the first, 0.0482 for the second.

First: GAGGTGCCTTGGGTTCTAACCTGTTGCTG (site GAGGTGCCTCA)
Second: GAGTCGCCTTGGGTTCTAACCTGTTGCCT (site GAGTCGCCTAG)
The “recombinant barcode read abundance (log10)” value of the first is higher: 2 for the first, 0.263 for the second.

“GAGTCGCCTTGGGTTCTAACCTGTTGCCT (site GAGTCGTCTAG)” and “GAGTCGCCTTGGGTTCTAACCTGTTGCGG (site GAGTAGCCTCC)” are within 0.2 log units of each other in “recombinant barcode read abundance (log10)” value: 0.118 for the first, 0.0862 for the second.

Going from “GAGTCGCCTTGGGTTCTAACCTGTTGCGG (site GAGTCGCCTCC)” to “GAGTCGCCTTGGGTTCTAACCTGTTGCGG (site GAGTGGCCTCC)”, the “recombinant barcode read abundance (log10)” value falls from 1.22 to 0.188.

“GAGTCGCCTTGGGTTCTAACCTGTTGCGG (site GAGTTGCCTCC)” and “GAGTCGGCTTGGGTTCTAACCTGTTGCTT (site GAGACGGCTAA)” are within 0.2 log units of each other in “recombinant barcode read abundance (log10)” value: 0.0886 for the first, 0.23 for the second.

“GAGTCGGCTTGGGTTCTAACCTGTTGCTT (site GAGCCGGCTAA)” and “GAGTCGGCTTGGGTTCTAACCTGTTGCTT (site GAGGCGGCTAA)” are within 0.2 log units of each other in “recombinant barcode read abundance (log10)” value: 0 for the first, 0.0495 for the second.

First: GAGTCGGCTTGGGTTCTAACCTGTTGCTT (site GAGTCGGCTAA)
Second: GAGTCTACTTGGGTTCTAACCTGTTGCAG (site GAGTCTACTCG)
The “recombinant barcode read abundance (log10)” value of the first is higher: 0.778 for the first, 0.339 for the second.

First: GAGTCTACTTGGGTTCTAACCTGTTGCAG (site GAGTCTACTCT)
Second: GAGTCTACTTGGGTTCTAACCTGTTGCTT (site GAATCTACTAA)
The “recombinant barcode read abundance (log10)” value of the first is higher: 0.494 for the first, 0.0356 for the second.

First: GAGTCTACTTGGGTTCTAACCTGTTGCTT (site GACTCTACTAA)
Second: GAGTCTACTTGGGTTCTAACCTGTTGCTT (site GAGTCTACTAA)
The “recombinant barcode read abundance (log10)” value of the first is higher: 0.813 for the first, 0 for the second.

First: GAGTCTACTTGGGTTCTAACCTGTTGCTT (site GATTCTACTAA)
Second: GAGTCTTCTTGGGTTCTAACCTGTTGCCA (site CTACAGGCTGT)
The “recombinant barcode read abundance (log10)” value of the first is lower: 0.0603 for the first, 0.281 for the second.

“GAGTCTTCTTGGGTTCTAACCTGTTGCCA (site GAGTCTTCTTG)” and “GAGTCTTCTTGGGTTCTAACCTGTTGCTA (site GAGTACTCTTA)” are within 0.2 log units of each other in “recombinant barcode read abundance (log10)” value: 0.147 for the first, 0.0434 for the second.

Compared with “GAGTCTTCTTGGGTTCTAACCTGTTGCTA (site GAGTCTTCTTA)”, “GAGTGCTCTTGGGTTCTAACCTGTTGCAG (site GAGCGCTCTCT)” is higher in “recombinant barcode read abundance (log10)” value: 0.0462 for the first, 0.676 for the second.

Compared with “GAGTGCTCTTGGGTTCTAACCTGTTGCAG (site GAGTGCTCTCT)”, “GAGTGGACTTGGGTTCTAACCTGTTGCGT (site GACCGGACTAC)” is lower in “recombinant barcode read abundance (log10)” value: 1.26 for the first, 0.349 for the second.

First: GAGTGGACTTGGGTTCTAACCTGTTGCGT (site GAGTGGACTAC)
Second: GAGTGTCCTTGGGTTCTAACCTGTTGCGA (site GAGTGTCCTTC)
The “recombinant barcode read abundance (log10)” value of the first is higher: 2.7 for the first, 1.87 for the second.

“GAGTGTCCTTGGGTTCTAACCTGTTGCGA (site GTGTCTCCTTC)” and “GAGTTCACTTGGGTTCTAACCTGTTGCAG (site AGTCGTTCTAG)” are within 0.2 log units of each other in “recombinant barcode read abundance (log10)” value: 0.0874 for the first, 0.141 for the second.

Compared with “GAGTTCACTTGGGTTCTAACCTGTTGCAG (site GAGTTCACTCT)”, “GAGTTGCCTTGGGTTCTAACCTGTTGCCT (site GAGTTGCCTAG)” is lower in “recombinant barcode read abundance (log10)” value: 1.79 for the first, 1.05 for the second.

“GAGTTGCCTTGGGTTCTAACCTGTTGCCT (site GCGTTGCCTAG)” and “GAGTTGCCTTGGGTTCTAACCTGTTGCCT (site GGGTTGCCTAG)” are within 0.2 log units of each other in “recombinant barcode read abundance (log10)” value: 0.107 for the first, 0.0448 for the second.

First: GAGTTGCCTTGGGTTCTAACCTGTTGCCT (site GTGTTGCCTAG)
Second: GAGTTGCCTTGGGTTCTAACCTGTTGCGG (site GAGTAGCCTCC)
The “recombinant barcode read abundance (log10)” value of the first is higher: 1.59 for the first, 0.0344 for the second.

“GAGTTGCCTTGGGTTCTAACCTGTTGCGG (site GAGTCGCCTCC)” and “GAGTTGCCTTGGGTTCTAACCTGTTGCGG (site GAGTGGCCTCC)” are within 0.2 log units of each other in “recombinant barcode read abundance (log10)” value: 0.25 for the first, 0.101 for the second.

First: GAGTTGCCTTGGGTTCTAACCTGTTGCGG (site GAGTTGCCTCC)
Second: GAGTTTGCTTGGGTTCTAACCTGTTGCCT (site GAGTTTGCTAG)
The “recombinant barcode read abundance (log10)” value of the first is higher: 2.32 for the first, 0.572 for the second.

“GAGTTTGCTTGGGTTCTAACCTGTTGCCT (site GCGTTTGCTAG)” and “GAGTTTGCTTGGGTTCTAACCTGTTGCCT (site GGGTTTGCTAG)” are within 0.2 log units of each other in “recombinant barcode read abundance (log10)” value: 0.0311 for the first, 0.124 for the second.

“GAGTTTGCTTGGGTTCTAACCTGTTGCCT (site GTGTTTGCTAG)” and “GATACGGCTTGGGTTCTAACCTGTTGCCT (site GATACGACTAG)” are within 0.2 log units of each other in “recombinant barcode read abundance (log10)” value: 0.0382 for the first, 0.169 for the second.

“GATACGGCTTGGGTTCTAACCTGTTGCCT (site GATACGCCTAG)” and “GATACGGCTTGGGTTCTAACCTGTTGCCT (site GATACGGCTAG)” are within 0.2 log units of each other in “recombinant barcode read abundance (log10)” value: 0 for the first, 0.149 for the second.

“GATACGGCTTGGGTTCTAACCTGTTGCCT (site GATACGTCTAG)” and “GATAGGCCTTGGGTTCTAACCTGTTGCCT (site GATAGGCCTAG)” are within 0.2 log units of each other in “recombinant barcode read abundance (log10)” value: 0.0137 for the first, 0.101 for the second.

“GATAGGCCTTGGGTTCTAACCTGTTGCCT (site GTTAGGCCTAG)” and “GATAGTCCTTGGGTTCTAACCTGTTGCCT (site GATAGTACTAG)” are within 0.2 log units of each other in “recombinant barcode read abundance (log10)” value: 0.031 for the first, 0.122 for the second.

“GATAGTCCTTGGGTTCTAACCTGTTGCCT (site GATAGTCCTAG)” and “GATAGTCCTTGGGTTCTAACCTGTTGCCT (site GATAGTGCTAG)” are within 0.2 log units of each other in “recombinant barcode read abundance (log10)” value: 0.322 for the first, 0.161 for the second.

First: GATAGTCCTTGGGTTCTAACCTGTTGCCT (site GATAGTTCTAG)
Second: GATATAGCTTGGGTTCTAACCTGTTGCGG (site GATATAGCTCC)
The “recombinant barcode read abundance (log10)” value of the first is lower: 0.159 for the first, 2.31 for the second.

First: GATATAGCTTGGGTTCTAACCTGTTGCGG (site GTGATAGCTCC)
Second: GATCCCACTTGGGTTCTAACCTGTTGCCT (site GATCCCACTAG)
The “recombinant barcode read abundance (log10)” value of the first is lower: 0.0376 for the first, 1.34 for the second.

“GATCCCACTTGGGTTCTAACCTGTTGCCT (site GATGCCACTAG)” and “GATCGATCTTGGGTTCTAACCTGTTGCCT (site GATCGATCTAA)” are within 0.2 log units of each other in “recombinant barcode read abundance (log10)” value: 0.192 for the first, 0.0447 for the second.

Compared with “GATCGATCTTGGGTTCTAACCTGTTGCCT (site GATCGATCTAC)”, “GATCGATCTTGGGTTCTAACCTGTTGCCT (site GATCGATCTAG)” is higher in “recombinant barcode read abundance (log10)” value: 0.159 for the first, 0.663 for the second.

With “GATCGATCTTGGGTTCTAACCTGTTGCCT (site GATCGATCTAT)” the “recombinant barcode read abundance (log10)” value was 0.0541.
